The source of these data is patent US20090143368A1, “Use of Cinnamoyl Compound” (priority 2005, published 2009).

Each structure is given as a SMILES string.

The subject of the first test is transcription regulatory region for a human-derived Type I collagen α2 chain gene. Kind of test: TGF-β-promoted transcription of a Type I collagen gene, COL-Luc luciferase reporter assay. The format is cell-based. To be noted: compound final concentration 1 μM; normal human fetal skin fibroblast transfected with COL-Luc; TGF-β added, 40 hours; read-out: Inhibition percentage of the ability of TGF-β to promote transcription of a Type I collagen gene. The method, then:
1×10^8 cells of a normal human fetal skin fibroblast (Clontech, catalogue No. CC-2509) were cultured at 37° C. overnight under 5% CO2 atmosphere. After the cultured cells were washed with a sodium phosphate buffer (hereinafter, referred to as PBS) twice, 3 ml of PBS was added thereto and the cells were scraped away the wall of a vessel using a cell scraper (Nalgen, catalogue No. 179693). The scraped cells were collected by centrifugation (1,500 rpm, 4° C., 15 min), and these were suspended in 20 ml of PBS and centrifuged again. To the resulting precipitates were added 11 ml of Solution 2 and 4.8 μl of pronase of DNA Extraction Kit (Stratagene, catalogue No. 200600). After shaken at 60° C. for 1 hour, the resulting mixture was allowed to stand in ice for 10 minutes. Then, 4 ml of Solution 3 of the kit was added to the mixture. After mixed, the mixture was allowed to stand in ice for 5 minutes and then centrifuged (3,000 rpm, 4° C., 15 min) to recover a supernatant. To the recovered supernatant was added 2 μl of RNase per 1 ml of the supernatant and the mixture was allowed to stand at 37° C. for 15 minutes. To the mixture was added 2-fold volume of ethanol. After mixed, a white thread-like substance (genomic DNA) appeared and the substance was recovered. The recovered genomic DNA was washed with 70% ethanol and then air-dried. The air-dried genomic DNA was dissolved in 500 μl of 10 mM Tris-HCl, 1 mM EDTA (pH 8.0) (hereinafter, referred to as TE).
The resulting genomic DNA-dissolved solution (genomic DNA 1 μg corresponding amount) was mixed with each 1 μl of an oligonucleotide consisting of a base sequence represented by SEQ ID No.: 1 (SEQ ID No. 1: an oligonucleotide primer designed to amplify a collagen promoter DNA: ccaagctagc gaaattatct tttctttcat ag 32) and an oligonucleotide ([…]) consisting of a base sequence represented by SEQ ID No.:2 (SEQ ID No. 2: an oligonucleotide primer designed to amplify a collagen promoter DNA: ccaaaagctt gcagtcgtgg ccagtacc 28), 29 μl of distilled water, 5 μl of a buffer attached to TaKaRa LA Taq (TAKARA SHUZO Co., Ltd., catalogue No. RR002A), 5 μl of a Mg^2+ solution, 5 μl of a dNTP mixture and 0.5 μl of TaKaRa LA Taq (TAKARA SHUZO Co., Ltd., catalogue No. RR002A). After the resulting mixed solution was incubated at 94° C. for 5 minutes, the mixed solution was subjected to 30 cycles, in which one cycle consists of incubation at 94° C. for 1 minute, at 60° C. for 1 minute and then at 72° C. for 1 minute. The mixed solution was electrophoresed on a 2% agarose gel to recover about 0.5 kb of a DNA. The recovered DNA was treated with phenol/chloroform and then precipitated with ethanol to recover the DNA. The resulting DNA was dissolved in ultrapure water. To this solution were added 2.5 μl of NheI and 2.5 μl of HindIII, and then incubated at 37° C. for 3 hours. Then, the solution was electrophoresed on a 2% agarose gel to recover about 3.5 kb of a DNA. The recovered DNA was precipitated with ethanol to recover again the DNA (hereinafter, referred to as the collagen promoter DNA).
On the other hand, the vector pGL3 (Promega, catalogue No. E1751) having the nucleotide sequence encoding firefly luciferase was digested with NheI and HindIII, and then subjected to agarose gel electrophoresis as described above to recover about 5 kb of a DNA. The recovered DNA was precipitated with ethanol to recover the DNA again. To the recovered DNA were added 44 μl of distilled water, 5 μl of Buffer attached to Alkaline Phosphatase (TAKARA SHUZO, catalogue No. 2120A) and 1 μl of Alkaline Phosphatase (TAKARA SHUZO, catalogue No. 2120A). The mixed solution was incubated at 65° C. for 30 minutes. Then, the mixed solution was treated with phenol/chloroform twice, and precipitated with ethanol to recover the DNA (hereinafter referred to as the Luc vector DNA). […]
With `COCC(=O)Nc1cccc(C=CC(=O)C2=C(O)c3ccccc3S(=O)(=O)N2C)c1` [(5b), 4-hydroxy-3-[3-[3-(methoxyacetylamino)phenyl]acryloyl]-2-methyl-2H-1,2-benzothiazine-1,1-dioxide], the inhibition (usually the change of the read-out against control, counted positive when it falls) at 1 µM is not below 70%.

On to `CN1C(C(=O)C=Cc2cccc(OCCO)c2)=C(O)c2ccccc2S1(=O)=O` [(16b), 4-hydroxy-3-[3-[3-(2-hydroxyethoxy)phenyl]acryloyl]-2-methyl-2H-1,2-benzothiazine-1,1-dioxide], for which the inhibition at 1 µM was not below 70%.

With `COCCNC(=O)c1cccc(C=CC(=O)c2c[nH]c3ccccc3c2=O)c1` [(23c), 3-[3-[3-[(2-methoxyethyl)aminocarbonyl]phenyl}acryloyl]-4(1H)-quinolinone], the inhibition at 1 µM is not below 70%.

The test is the same for the next values; noted with them: compound final concentration 3 μM; normal human fetal skin fibroblast transfected with COL-Luc; TGF-β added, 40 hours; read-out: Inhibition percentage of the ability of TGF-β to promote transcription of a Type I collagen gene.
Turning to `COC(=O)COc1cccc(C=CC(=O)C2=C(O)c3ccccc3S(=O)(=O)N2C)c1` [(1b), 4-hydroxy-3-[3-[3-[(methoxycarbonyl)methoxy]phenyl]acryloyl]-2-methyl-2H-1,2-benzothiazine-1,1-dioxide], the inhibition at 3 µM is not below 70%.

As to `COCCNC(=O)c1cccc(C=CC(=O)C2=C(O)c3ccccc3S(=O)(=O)N2C)c1` [(10b), 4-hydroxy-3-[3-[3-[(2-methoxyethyl)aminocarbonyl]phenyl}acryloyl]-2-methyl-2H-1,2-benzothiazine-1,1-dioxide], the inhibition at 3 µM is not below 70%.

For `COC(=O)CNC(=O)c1cccc(C=CC(=O)C2=C(O)c3ccccc3S(=O)(=O)N2C)c1` [(13b), 4-hydroxy-3-[3-[3-[[(methoxycarbonylmethyl)amino]carbonyl]phenyl}acryloyl]-2-methyl-2H-1,2-benzothiazine-1,1-dioxide], the inhibition at 3 µM is not below 70%.

Take `COCC(=O)Nc1cccc(C=CC(=O)c2c(O)c3cccnc3n(C)c2=O)c1` [(19a), 4-hydroxy-1-methyl-3-[3-[3-(methoxyacetylamino)phenyl]acryloyl]-1H-[1,8]naphthyridin-2-one]: the inhibition at 3 µM was not below 70%.

Turning to `COCCNC(=O)c1cccc(C=CC(=O)c2cn(C)c3ccccc3c2=O)c1` [(24c), 3-[3-[3-[(2-methoxyethyl)aminocarbonyl]phenyl}acryloyl]-1-methyl-4(1H)-quinolinone], the inhibition at 3 µM is not below 70%.

Turning to `COC(=O)CNC(=O)c1cccc(C=CC(=O)c2c(O)c3cccnc3n(C)c2=O)c1` [(29a), 4-hydroxy-1-methyl-3-[3-[3-[[(methoxycarbonylmethyl)amino]carbonyl]phenyl}acryloyl]-1H-[1,8]naphthyridin-2-one], the inhibition at 3 µM is not below 70%.

`COCCNC(=O)c1cccc(C=CC(=O)c2c(O)c3cccnc3[nH]c2=O)c1` [(31a), 4-hydroxy-3-[3-[3-[(2-methoxyethyl)aminocarbonyl]phenyl}acryloyl]-1H-[1,8]naphthyridin-2-one]: the inhibition at 3 µM is not below 70%.

In the case of `COCCNC(=O)c1cccc(C=CC(=O)c2c(O)c3cccnc3n(C)c2=O)c1` [(32a), 4-hydroxy-1-methyl-3-[3-[3-[(2-methoxyethyl)aminocarbonyl]phenyl}acryloyl]-1H-[1,8]naphthyridin-2-one], the inhibition at 3 µM was not below 70%.

Turning to `COC(=O)COc1cccc(C=CC(=O)c2c(O)c3cccnc3n(C)c2=O)c1` [(36a), 4-hydroxy-1-methyl-3-[3-[3-[(methoxycarbonyl)methoxy]phenyl]acryloyl]-1H-[1,8]naphthyridin-2-one], the inhibition at 3 µM is not below 70%.

On to `Cn1c(=O)c(C(=O)C=Cc2cccc(OCCO)c2)c(O)c2cccnc21` [(40a), 4-hydroxy-1-methyl-3-[3-[3-(2-hydroxyethoxy)phenyl]acryloyl]-1H-[1,8]naphthyridin-2-one], for which the inhibition at 3 µM was not below 70%.

On to `COCCOC(=O)Nc1cccc(C=CC(=O)c2c(O)c3cccnc3n(C)c2=O)c1` [(42a), 4-hydroxy-1-methyl-3-[3-[3-[(2-methoxyethoxy)carbonylamino]phenyl]acryloyl]-1H-[1,8]naphthyridin-2-one], for which the inhibition at 3 µM is not below 70%.

The same test, now with this note: compound final concentration 10 μM; normal human fetal skin fibroblast transfected with COL-Luc; TGF-β added, 40 hours; read-out: Inhibition percentage of the ability of TGF-β to promote transcription of a Type I collagen gene.
Consider `COC(=O)COc1cccc(C=CC(=O)c2ccc(C)[nH]c2=O)c1` [(11c), 3-[3-[3-[(methoxycarbonyl)methoxy]phenyl]-1-oxo-2-propenyl]-6-methyl-2(1H)-pyridinone], for which the inhibition at 10 µM is not below 70%.

On to `Cc1ccc(C(=O)/C=C/c2cccc(OCCO)c2)c(=O)[nH]1` [(16c), 3-[3-[3-(2-hydroxyethoxy)phenyl]-1-oxo-2-propenyl]-6-methyl-2(1H)-pyridinone], for which the inhibition at 10 µM is not below 70%.

Turning to `COCC(=O)Nc1ccc(C=CC(=O)c2c(O)c3cccnc3n(C)c2=O)cc1` [(20a), 4-hydroxy-1-methyl-3-[3-[4-(methoxyacetylamino)phenyl]acryloyl]-1H-[1,8]naphthyridin-2-one], the inhibition at 10 µM is not below 70%.

As for `CN(C)CCOc1cccc(C=CC(=O)c2c(O)c3cccnc3n(C)c2=O)c1` [(56a), 4-hydroxy-1-methyl-3-[3-[3-(2-dimethylaminoethoxy)phenyl]acryloyl]-1H-[1,8]naphthyridin-2-one], the inhibition at 10 µM is not below 70%.

On to `COCCNC(=O)c1cccc(/C=C/C(=O)c2c(O)c3cccnc3n(C)c2=O)n1` [(124a), 4-hydroxy-1-methyl-3-[3-[6-(2-methoxyethyl)aminocarbonyl-2-pyridinyl]acryloyl]-1H-[1,8]naphthyridin-2-one], for which the inhibition at 10 µM was not below 70%.
